Test results: patent US11549198B2, “Method of producing non-woven protein fibers” (Rowan University, priority 2017, dated 2023)

Assay: Drug release study of model drugs from corn zein fibers and films in phosphate buffer
Format: physicochemical
Conditions: for n value from the Korsmeyer-Peppas equation of model drug release profile / release percentage at the 15-minute time point: 20 mM phosphate buffer (pH 7.0); for n value from the Korsmeyer-Peppas equation of model drug release profile: up to 96 hours; for release percentage at the 15-minute time point: fibers
Procedure: Approximately 0.05 g of film or fiber mesh was placed in 50 mL of 20 mM phosphate buffer (pH 7.0). Drug release was done in triplicate under conditions of dynamic flow. At the appropriate time points (15 minutes, 30 minutes, 1 hour, 2 hours, 3 hours, 4 hours, 5 hours, 24 hours, 48 hours, 96 hours), aliquots of solution were removed from the samples. The absorbance of each aliquot was measured at the appropriate wavelength for the corresponding model drug using a SpectraMax i3x Plate Reader (Molecular Devices LLC, Sunnyvale, Calif., USA). Absorbance was related to concentration and the values from the three aliquots were averaged and graphed as a function of time. Upon completion of the study, fibers were extracted from solution via suction filtration and dried overnight. Release profiles were then fit with the Krosmeyer-Peppas release model shown in equation 1: […]
To further investigate the potential effectiveness of the supramolecular systems for transdermal drug delivery, drug release of the model drugs incorporated in either films or fibers was simulated in 0.1% w/v 20 mM phosphate buffer (pH 7.0) for different times. Shown in FIGS. 16A-16B are the normalized release profiles for the fiber and film models, respectively. Data points were normalized based on the amount of drug released at 96 hours. No significant drug release was observed above 96 hours for all samples. […] Alcian blue is a very large molecule (MW 1.3 kDa), so it is reasonable to assume its bulkiness prevents it from being efficiently integrated into the zein structure. […] This can be attributed to the nature of the method used to fabricate the films. The corn zein was exposed to formic acid for a longer period of time during film synthesis than during fiber generation. During this time, the formic acid may have severed some of the hydrogen bonds of the corn zein structure, allowing the integration of the model drug molecules.

SMILES | n value from the Korsmeyer-Peppas equation of model drug release profile (Fiber) | n value from the Korsmeyer-Peppas equation of model drug release profile (Film) | release percentage at the 15-minute time point | release profile at the earlier points (films, in contrast to the fibers)
CN(C)C(SCc1ccc2c(c1)-c1nc-2nc2[n-]c(nc3nc(nc4[n-]c(n1)c1ccc(CSC(N(C)C)=[N+](C)C)cc41)-c1ccc(CSC(N(C)C)=[N+](C)C)cc1-3)c1ccc(CSC(N(C)C)=[N+](C)C)cc21)=[N+](C)C.[Cl-].[Cl-].[Cl-].[Cl-].[Cu+2] [Alcian Blue, alcian blue 8GX] | 0.1104 | 0.1507 | considerably high release percentage | –
CN(C)c1ccc(C(=C2C=CC(=[N+](C)C)C=C2)c2ccc(N(C)C)cc2)cc1 [Crystal Violet, Crystal violet] | 0.353 | 0.1184 | – | –
CO[C@H]1/C=C/O[C@@]2(C)Oc3c(C)c(O)c4c(O)c(c(/C=N/N5CCN(C)CC5)c(O)c4c3C2=O)NC(=O)/C(C)=C\C=C\[C@H](C)[C@H](O)[C@@H](C)[C@@H](O)[C@@H](C)[C@H](OC(C)=O)[C@@H]1C [Rifampin, rifampin] | 0.392 | 0.284 | – | –

Further lines, results first:

n value from the Korsmeyer-Peppas equation of model drug release profile (Fiber) | n value from the Korsmeyer-Peppas equation of model drug release profile (Film) | release percentage at the 15-minute time point | release profile at the earlier points (films, in contrast to the fibers) | SMILES
0.1318 | 0.430 | considerably high release percentage | dramatic drop | O=C1/C(=C2\Nc3ccc(S(=O)(=O)[O-])cc3C2=O)Nc2ccc(S(=O)(=O)[O-])cc21.[Na+].[Na+] [Indigo Carmine, indigo carmine]
0.337 | 0.203 | – | – | CCN(CC)c1ccc2c(-c3ccccc3C(=O)O)c3ccc(=[N+](CC)CC)cc-3oc2c1.[Cl-] [Rhodamine B, rhodamine B]
